Results from publication PMC4604124, “In Vitro Characterization of the Pharmacological Properties of the Anti-Cancer Chelator, Bp4eT, and Its Phase I Metabolites” (PLoS ONE, 2015).
Several values for one entry are separate records, joined by “and”; a condition that tells them apart may be missing. Equal values may be shown once. Read-outs that look alike come from different tables or passages of the source.

Experiments:
[1] = tested on: HL-60 human promyelocytic leukemia cells; test: MTT cytotoxicity assay, HL-60 cells; format: cell-based; details: for IC50: MTT, read-out: IC50
Description: (§1) For cytotoxicity experiments, cancer cells were seeded at a density of 5,000 (MCF-7), 10,000 (HL-60) or 2,000 cells/well (HCT116 and A549) in 96-well plates (TPP) for 24 h/37°C prior to the addition of examined agents. The non-cancerous cells, 3T3 and H9c2 cells, were cultured for 24 h/37°C in 96-well plates at a density of 10,000 cells/well, the medium was then changed to serum- and pyruvate-free DMEM (Sigma-Aldrich) and incubated with the cells for another 24 h/37°C. The cytotoxic effects of Bp4eT and its metabolites were studied at different concentrations after a 72 h/37°C incubation. In order to aid the dissolution of the lipophilic ligands, 0.1% dimethyl sulfoxide (v/v) (DMSO; Sigma-Aldrich) was present in the culture medium of all groups. At this concentration, DMSO had no effect on cellular proliferation or viability.
(§2) The viability of cells were determined using an MTT assay (Sigma-Aldrich) according to previously established methods. The optical density of soluble MTT was measured at λ = 570 nm, subtracting the λ = 690 nm background using a Tecan Infinite 200M plate reader (Tecan Group, Männedorf, Switzerland). The viability or proliferation of experimental groups was expressed as a percentage of the untreated controls (100%).
(§3) SigmaStat for Windows 3.5 (Systat Software, San Jose, CA, USA) statistical software package was utilized to analyze results. The data are expressed as the mean ± SD of a given number of experiments. Statistical significance was determined using a one-way ANOVA with a Bonferroni post-hoc test or Student’s t-test. The results were considered to be statistically significant when p < 0.05. The IC50 values were calculated using CalcuSyn 2.0 software (Biosoft, Cambridge, UK). Cell cycle analysis was evaluated using MultiCycle AV Software (Phoenix Flow Systems, San Diego, CA, USA).

[2] = tested on: HCT116 human colorectal carcinoma cells; test: MTT cytotoxicity assay, HCT116 cells; format: cell-based; details: for IC50: MTT
Description: as §1, §2, §3

caspase 8 = test: Caspase activity, luminescent kit, caspase 8; format: cell-based, human; details: for kaspáza 8, raw signal / kaspáza 8, signal / viabilita: individual experiments by date; for kaspáza 8, raw signal, průměry / kaspáza 8, % kontroly / kaspáza 8, signal / viabilita, průměry: mean; for kaspáza 8, % kontroly / kaspáza 8, signal / viabilita / kaspáza 8, signal / viabilita, průměry: normalised to viability
Description: To assess the effect of the compounds on caspase activity, MCF-7 cells were incubated with 100 nM Bp4eT or its metabolites for 3, 24 or 72 h/37°C in 96-well plates, as described above. The cells were then lysed by adding 100 μL of cold lysis buffer (100 mM HEPES, 10 mM CHAPS, 10 mM D-L-dithiothreitol, pH 7.4) to 100 μL of medium in each well. Lysates were immediately frozen at -80°C. Thawed lysates were used to assess caspase activity using luminescent kits for caspases 3/7, 8 and 9 (Promega, Madison, WI, USA). The luminescence was measured using the Tecan Infinite 200M plate reader. Caspase activity in the experimental groups was corrected according to the cellular viability of each group and expressed as a percentage of activity of the untreated control (100%).

Q: With CCNC(=O)NN=C(c1ccccc1)c1ccccn1 [Z-Bp4eS, 2-benzoylpyridine 4-ethylsemicarbazone] as the compound, how does the “Therapeutic index, IC50 non-cancerous cells / IC50 neoplastic cells” value ([1]; 3T3/HL-60) read?
A: The value was >21.6.

Q: And the “Therapeutic index, IC50 non-cancerous cells / IC50 neoplastic cells” value ([1]; H9c2/HL-60)?
A: Its value is 7.4.

Q: And the IC50 ([1]; HL-60, 72 h/37°C, mean ± SD, n ≥ 4)?
A: Its IC50 is 46.2 ± 1.5 µM.

Q: And the “MTT, relative to control (0 = 100)” value ([1]; HL-60, 10 000 b/j, 3 μM, průměr (mean), sheet Z-Bp4eS)?
A: The value was 96.55.

Q: What about the “MTT, relative to control (0 = 100)” value ([1]; HL-60, 10 000 b/j, 3 μM, single experiment (date), sheet Z-Bp4eS) of the same compound?
A: The value was 99.8024 and 101.089 and 96.0475 and 94.6794 and 91.1123.

Q: What about the “MTT, relative to control (0 = 100)” value ([1]; HL-60, 10 000 b/j, 10 μM, průměr (mean), sheet Z-Bp4eS) of the same compound?
A: Its value is 98.03.

Q: And the “MTT, relative to control (0 = 100)” value ([1]; HL-60, 10 000 b/j, 10 μM, single experiment (date), sheet Z-Bp4eS)?
A: Its value is 97.8586 and 97.7431 and 101.779 and 97.3762 and 95.3935.

Q: And the “MTT, relative to control (0 = 100)” value ([1]; HL-60, 10 000 b/j, 30 μM, průměr (mean), sheet Z-Bp4eS)?
A: The value was 90.77.

Q: What about the “MTT, relative to control (0 = 100)” value ([1]; HL-60, 10 000 b/j, 30 μM, single experiment (date), sheet Z-Bp4eS) of the same compound?
A: Its value is 95.7321 and 90.5946 and 90.8492 and 85.9082.

Q: And the “MTT, relative to control (0 = 100)” value ([1]; HL-60, 10 000 b/j, 40 μM, průměr (mean), sheet Z-Bp4eS)?
A: Its value is 82.14.

Q: What about the “MTT, relative to control (0 = 100)” value ([1]; HL-60, 10 000 b/j, 40 μM, single experiment (date), sheet Z-Bp4eS) of the same compound?
A: The value was 82.3316 and 84.0304 and 91.7648 and 77.576 and 75.0054.

Q: What about the “MTT, relative to control (0 = 100)” value ([1]; HL-60, 10 000 b/j, 50 μM, průměr (mean), sheet Z-Bp4eS) of the same compound?
A: The value was 40.92.

Q: And the “MTT, relative to control (0 = 100)” value ([1]; HL-60, 10 000 b/j, 50 μM, single experiment (date), sheet Z-Bp4eS)?
A: The value was 42.5442 and 42.5088 and 37.382 and 41.2548.

Q: And the “MTT, relative to control (0 = 100)” value ([1]; HL-60, 10 000 b/j, 80 μM, průměr (mean), sheet Z-Bp4eS)?
A: The value was 2.08.

Q: And the “MTT, relative to control (0 = 100)” value ([1]; HL-60, 10 000 b/j, 100 μM, průměr (mean), sheet Z-Bp4eS)?
A: Its value is 2.48.

Q: What about the “MTT, relative to control (0 = 100)” value ([1]; HL-60, 10 000 b/j, 300 μM, průměr (mean), sheet Z-Bp4eS) of the same compound?
A: Its value is 2.72.

Q: And the “MTT, relative to control (0 = 100)” value ([1]; HL-60, 10 000 b/j, 300 μM, single experiment (date), sheet Z-Bp4eS)?
A: Its value is 3.195 and 2.8028 and 2.136 and 2.734.

Q: What about the IC50 ([1]; HL-60, 10 000 b/j, single experiment (date), sheet Z-Bp4eS) of the same compound?
A: The IC50 was 46.2 µM and 48.3 µM and 45.5 µM.

Q: And the IC50 ([1]; Homo sapiens, HL-60, HL-60, 10 000 b/j, průměr (mean), sheet Z-Bp4eS)?
A: Its IC50 is 46.2 µM.

Q: What about the IC50 ([1]; Homo sapiens, HL-60, HL-60, 10 000 b/j, single experiment (date), sheet Z-Bp4eS) of the same compound?
A: Its IC50 is 44.9 µM.

Q: And the “Therapeutic index, IC50 non-cancerous cells / IC50 neoplastic cells” value ([2]; 3T3/HCT116)?
A: Its value is >3.0.

Q: What about the “Therapeutic index, IC50 non-cancerous cells / IC50 neoplastic cells” value ([2]; H9c2/HCT116) of the same compound?
A: Its value is 1.0.

Q: And the IC50 ([2]; HCT116, 72 h/37°C, mean ± SD, n ≥ 4)?
A: The IC50 was 337 ± 48.5 µM.

Q: What about the “MTT, relative to control (0 = 100)” value ([2]; HCT116, 2 000 b/j, 1 μM, průměr (mean), sheet Z-Bp4eS) of the same compound?
A: Its value is 98.02.

Q: What about the “MTT, relative to control (0 = 100)” value ([2]; HCT116, 2 000 b/j, 1 μM, single experiment (date), sheet Z-Bp4eS) of the same compound?
A: The value was 92.9248 and 94.2078 and 101.373 and 103.589.

Q: And the “MTT, relative to control (0 = 100)” value ([2]; HCT116, 2 000 b/j, 3 μM, průměr (mean), sheet Z-Bp4eS)?
A: Its value is 95.04.

Q: What about the “MTT, relative to control (0 = 100)” value ([2]; HCT116, 2 000 b/j, 3 μM, single experiment (date), sheet Z-Bp4eS) of the same compound?
A: The value was 90.3505 and 96.7506 and 97.8429 and 95.2259.

Q: What about the “MTT, relative to control (0 = 100)” value ([2]; HCT116, 2 000 b/j, 10 μM, průměr (mean), sheet Z-Bp4eS) of the same compound?
A: The value was 92.27.

Q: What about the “MTT, relative to control (0 = 100)” value ([2]; HCT116, 2 000 b/j, 10 μM, single experiment (date), sheet Z-Bp4eS) of the same compound?
A: Its value is 90.1105 and 89.2672 and 98.2602 and 91.4504.

Q: And the “MTT, relative to control (0 = 100)” value ([2]; HCT116, 2 000 b/j, 30 μM, průměr (mean), sheet Z-Bp4eS)?
A: Its value is 89.97.

Q: And the “MTT, relative to control (0 = 100)” value ([2]; HCT116, 2 000 b/j, 30 μM, single experiment (date), sheet Z-Bp4eS)?
A: Its value is 84.3315 and 84.8984 and 97.3042 and 93.3561.

Q: And the “MTT, relative to control (0 = 100)” value ([2]; HCT116, 2 000 b/j, 100 μM, průměr (mean), sheet Z-Bp4eS)?
A: Its value is 81.81.

Q: And the “MTT, relative to control (0 = 100)” value ([2]; HCT116, 2 000 b/j, 100 μM, single experiment (date), sheet Z-Bp4eS)?
A: The value was 79.36 and 76.1483 and 84.5307 and 87.1986.

Q: What about the “MTT, relative to control (0 = 100)” value ([2]; HCT116, 2 000 b/j, 300 μM, průměr (mean), sheet Z-Bp4eS) of the same compound?
A: The value was 62.81.

Q: And the “MTT, relative to control (0 = 100)” value ([2]; HCT116, 2 000 b/j, 300 μM, single experiment (date), sheet Z-Bp4eS)?
A: The value was 53.0737 and 67.0105 and 63.0816 and 68.093.

Q: What about the “MTT, relative to control (0 = 100)” value ([2]; HCT116, 2 000 b/j, 1000 μM, průměr (mean), sheet Z-Bp4eS) of the same compound?
A: The value was 14.99.

Q: And the “MTT, relative to control (0 = 100)” value ([2]; HCT116, 2 000 b/j, 1000 μM, single experiment (date), sheet Z-Bp4eS)?
A: The value was 11.223 and 18.8694 and 13.6196 and 16.2655.

Q: And the IC50 ([2]; HCT116, 2 000 b/j, single experiment (date), sheet Z-Bp4eS)?
A: The IC50 was 350 µM and 338 µM and 388 µM.

Q: And the IC50 ([2]; Homo sapiens, HCT-116, HCT116, 2 000 b/j, průměr (mean), sheet Z-Bp4eS)?
A: The IC50 was 337 µM.

Q: And the IC50 ([2]; Homo sapiens, HCT-116, HCT116, 2 000 b/j, single experiment (date), sheet Z-Bp4eS)?
A: Its IC50 is 272 µM.

Q: And the “kaspáza 8, raw signal” value (caspase 8; 3 hodiny)?
A: Its value is 1943.5 and 1086.5 and 1152 and 914.5.

Q: What about the “kaspáza 8, raw signal, průměry” value (caspase 8; 3 hodiny) of the same compound?
A: The value was 1274.12.

Q: What about the “kaspáza 8, % kontroly” value (caspase 8; 3 hodiny) of the same compound?
A: The value was 95.08 % kontroly.

Q: What about the “kaspáza 8, signal / viabilita” value (caspase 8; 3 hodiny) of the same compound?
A: The value was 19.9524 and 11.1542 and 11.8267 and 9.388.

Q: What about the “kaspáza 8, signal / viabilita, průměry” value (caspase 8; 3 hodiny) of the same compound?
A: Its value is 13.0804.

Q: What about the “kaspáza 8, raw signal” value (caspase 8; 24 hodin) of the same compound?
A: The value was 1728 and 1248 and 1958.5 and 1430.5.

Q: And the “kaspáza 8, raw signal, průměry” value (caspase 8; 24 hodin)?
A: The value was 1591.25.

Q: And the “kaspáza 8, % kontroly” value (caspase 8; 24 hodin)?
A: The value was 100.61 % kontroly.

Q: What about the “kaspáza 8, signal / viabilita” value (caspase 8; 24 hodin) of the same compound?
A: Its value is 17.3743 and 12.5481 and 19.6919 and 14.3831.

Q: And the “kaspáza 8, signal / viabilita, průměry” value (caspase 8; 24 hodin)?
A: The value was 15.9994.

Q: What about the “kaspáza 8, raw signal” value (caspase 8; 72 hodin) of the same compound?
A: Its value is 6689.5 and 5535.5 and 6778.5 and 5867.

Q: And the “kaspáza 8, raw signal, průměry” value (caspase 8; 72 hodin)?
A: Its value is 6217.62.

Q: What about the “kaspáza 8, % kontroly” value (caspase 8; 72 hodin) of the same compound?
A: Its value is 96.15 % kontroly.

Q: And the “kaspáza 8, signal / viabilita” value (caspase 8; 72 hodin)?
A: Its value is 71.5149 and 59.1779 and 72.4663 and 62.7218.

Q: What about the “kaspáza 8, signal / viabilita, průměry” value (caspase 8; 72 hodin) of the same compound?
A: The value was 66.4702.
